Patent US20060275800A1, “Process for characterization of the transactivation and transrepression activity of glucocorticoid receptor ligands in primary immune cells” (priority 2005, published 2006)

Tests used:
CD163 [1] = test: In vitro mRNA expression of CD163 (transactivation parameter) in unstimulated human PBMC cultures; format: cell-based; conditions: for Transactivation vs. Prednisolone CD163: mRNA, PBMC cultures, GR-ligand/prednisolone quotient; for induction of CD163 (in words): single substance
Excerpt: (§1) Regarding the definition of suitable parameters, the regulation, mediated by standard glucocorticoids and selective GR ligands, of more than 50 genes in primary human immune cells was examined in a broad screening approach. Selected genes were further characterized in vitro and in vivo in kinetic experiments. […] Decisive criteria for the parameter selection were 1) the consistent reflection of transactivation or transrepression properties of GR ligands, 2) the detection of the regulation in non-stimulated immune cells, and 3) the quick reaction of the gene expression in in vitro assays (the 4-hour time period was used for the screening), and the good and enduring detectability after in vivo application of GR ligands. These properties make it likely that a direct regulation of the gene expression by the GR ligands will take place and that the parameters will be usable in in vivo studies (e.g., as biomarkers).
(§2) To have a comparison with a standard GK, the GR-ligand-influenced gene expressions for these parameters were normalized to the gene expression after treatment with the standard GK, prednisolone. […] It is clear to one skilled in the art that the normalization could also in principle be related to any other glucocorticoid.
(§3) For gene suppression, the “prednisolone/GR ligand” quotient was derived for purposes of normalization, i.e., a lower value (<1) indicates a relatively weaker suppression by the GR ligands (higher values in the residual gene expression).
(§4) For the mRNA detection, the total RNA was isolated from the respective samples (human PBMC or human whole blood or spleen cells from mice), transcribed in the cDNA and amplified and detected below by means of Real-time TaqMan-PCR (Applied Biosystems). A relative quantification in comparison to the expression of the “house-keeping” gene HPRT was carried out. In each case, the ratio of the result for the GR ligands to the result of the vehicle control is plotted.

TNF-α = test: In vitro mRNA expression of TNF-α (transrepression parameter) in unstimulated human PBMC cultures; format: cell-based; conditions: for Transrepression vs. Prednisolone TNF-α: mRNA, PBMC cultures, prednisolone/GR ligand quotient; for suppression of the mRNA expression of TNF-α (in words): human PBMC cultures, single substance
Excerpt: as §1, §2, §3, §4

FKBP51 [2] = test: In vitro mRNA expression of FKBP51 (transactivation parameter) in unstimulated human PBMC cultures; format: cell-based; conditions: for Transactivation vs. Prednisolone FKBP51: mRNA, PBMC cultures, GR-ligand/prednisolone quotient
Excerpt: as §1, §2, §3, §4

IL-1β = test: In vitro mRNA expression of IL-1β (transrepression parameter) in unstimulated human PBMC cultures; format: cell-based; conditions: for Transrepression vs. Prednisolone IL-1β: mRNA, PBMC cultures, prednisolone/GR ligand quotient; for suppression of the mRNA expression of IL-1β (in words): human PBMC cultures, single substance
Excerpt: as §1, §2, §3, §4

[3] = test system: transrepression (TNF-α and IL-1β) and transactivation (CD163 and FKBP51); test: Transrepression/transactivation ratio (dissociation factor) in human PBMC cultures; format: cell-based; conditions: PBMC cultures, 1, 2, 4, 12 and 24 hours
Excerpt: As parameters that could [make] reference to the mechanism of the transrepression, TNF-α and IL-1β were selected. CD163 and FKBP51 are used to detect the transactivation activity.
Below, a ratio between the transrepression and transactivation parameters that are normalized to prednisolone was derived according to formula 2: [formula]
The factors for the transactivation and transrepression activity were averaged geometrically and put into a ratio with one another. […] The higher the ratio, the more dissociated the GR ligand is in comparison to prednisolone (ratio=1). [drawing]
Figure: Ratios for Visualization of the In Vitro Dissociation of the GR Ligands in Comparison to Prednisolone in PBMC Cultures (n—3) after 1, 2, 4, 12 and 24 Hours.
The ratios were calculated after the normalization of the gene expression values to prednisolone from the quotient of the geometric means of the parameters for transrepression (TNF-α and IL-1β) and for transactivation (CD163 and FKBP51). Mean values±SD.

FKBP51 [4] = test: Time-dependent FKBP51 mRNA expression in human whole-blood cultures; format: cell-based
Description: as §4
(§5) For the parameters CD163 and FKBP51, in addition, the time-dependent influence of CR ligands on the mRNA expression in human whole-blood cultures was examined.

CD163 [5] = test: Time-dependent CD163 mRNA expression in human whole-blood cultures; format: cell-based
Description: as §4, §5

[6] = test system: tyrosinaminotransferase (TAT); test: Induction of tyrosinaminotransferase (TAT) activity in rat hepatoma cells (H4IIE3); format: cell-based; conditions: for effectiveness, induction of the TAT activity, % of the maximum dexamethasone effect / EC50: agonism, n=2; for EC50: read-out: power, induction of the TAT activity
Description: In a second transactivation system, the induction of the tyrosinaminotransferase (TAT) by glucocorticoids is determined. In the promoter of the gene for the TAT, GREs are also located, so that this gene is expressed in an enhanced form by binding of the ligand-activated GR. To this end, rat hepatoma cells (H4IIE3) are treated for 24 hours with test and reference substances, and then the TAT activity is determined by photometry. For the two assays, both the detection of agonistic actions of the SEGRA substances in the transactivation and the detection of antagonistic actions in the induction of the parameters by other GR ligands are possible.
(§6) The activities of SEGRA substances in the respective transactivation and transrepression systems are determined in comparison to the activities of the reference substance dexamethasone.

CD163 [7] = test: In vivo expression of CD163 in spleen cells of treated mice; conditions: after 24 hours
Description: as §4
(§7) The in vivo regulation of the expression of selected genes was characterized in the spleen cells of SEGRA-treated mice after 24 hours.

[8] = test system: transactivation parameters; test: Gene induction in human PBMC (transactivation profile); format: cell-based; conditions: mRNA
Description: as §4
Below, by way of example, the application of the characterization of the transactivation and transrepression activity of selective GR ligands by means of gene expression analysis in primary immune cells is shown comparatively based on two SEGRA substances, the agonist in the transactivation, compound 1, and the antagonist in the transactivation, compound 2. The molecular mechanism of these substances had been previously characterized in the usual assays (see 5.2 and 5.3). The gene expression analysis was performed by means of quantitative Real-Time-TaqMan-PCR. The ratios (mean value±standard deviation) of the results for the GR ligands to the results for the vehicle control are shown.
In contrast to this, the different transactivation profile of the SEGRA substances is reflected in differing degrees of gene induction.

glutamine synthetase = test: In vivo expression of glutamine synthetase in spleen cells of treated mice; conditions: after 24 hours
Description: as §4, §7

GILZ = test: In vivo expression of GILZ in spleen cells of treated mice; conditions: after 24 hours
Description: as §4, §7

MMTV promoter = MMTV promoter luciferase transactivation assay in HeLa cells; format: cell-based, human
Excerpt: The promoter of the mouse mammary tumor virus (MMTV) contains specific binding sites for the activated GR (so-called GREs). This promoter was cloned before a reporter gene (luciferase), and the construct was integrated in a stable manner in the genome of the human cell line HeLa (cervix carcinoma cells). By adding test and reference substances, the MMTV promoter is activated, and the luciferase, whose activity can be detected by means of photometric measurement, is expressed.
as §6

FKBP51 [9] = test: In vivo expression of FKBP51 in spleen cells of treated mice; conditions: after 24 hours
Description: as §4, §7

inflammatory cytokines = test: In vivo expression of inflammatory cytokines in spleen cells of treated mice; conditions: after 24 hours, vs vehicle control
Description: as §4, §7

[10] = human PBMC cultures, antagonism

| SMILES | Transactivation vs. Prednisolone CD163 (CD163 [1]; 1 hour) | Transactivation vs. Prednisolone CD163 (CD163 [1]; 2 hours) | Transactivation vs. Prednisolone CD163 (CD163 [1]; 4 hours) | Transactivation vs. Prednisolone CD163 (CD163 [1]; 12 hours) | Transactivation vs. Prednisolone CD163 (CD163 [1]; 24 hours) | Transrepression vs. Prednisolone TNF-α (TNF-α; 1 hour) | Transrepression vs. Prednisolone TNF-α (TNF-α; 2 hours) | Transrepression vs. Prednisolone TNF-α (TNF-α; 4 hours) | Transrepression vs. Prednisolone TNF-α (TNF-α; 12 hours) | Transrepression vs. Prednisolone TNF-α (TNF-α; 24 hours) | Transactivation vs. Prednisolone FKBP51 (FKBP51 [2]; 1 hour) | Transactivation vs. Prednisolone FKBP51 (FKBP51 [2]; 2 hours) | Transactivation vs. Prednisolone FKBP51 (FKBP51 [2]; 4 hours) | Transactivation vs. Prednisolone FKBP51 (FKBP51 [2]; 12 hours) | Transactivation vs. Prednisolone FKBP51 (FKBP51 [2]; 24 hours) | Transrepression vs. Prednisolone IL-1β (IL-1β; 1 hour) | Transrepression vs. Prednisolone IL-1β (IL-1β; 2 hours) | Transrepression vs. Prednisolone IL-1β (IL-1β; 4 hours) | time-dependent influence on FKBP51 mRNA expression (FKBP51 [4]) | time-dependent influence on CD163 mRNA expression (CD163 [5]) | other results |
| --- | --- | --- | --- | --- | --- | --- | --- | --- | --- | --- | --- | --- | --- | --- | --- | --- | --- | --- | --- | --- | --- |
| C[C@@H]1C[C@H]2[C@@H]3CCC4=CC(=O)C=C[C@]4(C)[C@@]3(F)[C@@H](O)C[C@]2(C)[C@@]1(O)C(=O)CO [Dexamethasone, dexamethasone] | 1.02 | 1.89 | 1.34 | 1.13 | 1.04 | 0.80 | 0.85 | 1.01 | 1.00 | 0.97 | 0.89 | 1.13 | 1.08 | 1.07 | 1.05 | 0.61 | 0.69 | 1.27 |  |  | Transrepression vs. Prednisolone IL-1β (IL-1β; 12 hours): 0.96; Transrepression vs. Prednisolone IL-1β (IL-1β; 24 hours): 1.16 |
| C[C@]12C=CC(=O)C=C1CC[C@@H]1[C@@H]2[C@@H](O)C[C@@]2(C)[C@H]1CC[C@]2(O)C(=O)CO [Prednisolone, prednisolone] | 1.00 | 1.00 | 1.00 | 1.00 | 1.00 | 1.00 | 1.00 | 1.00 | 1.00 | 1.00 | 1.00 | 1.00 | 1.00 | 1.00 | 1.00 | 1.00 | 1.00 | 1.00 | induced the expression of these genes permanently | induced the expression of these genes permanently | dissociation factor (transrepression/transactivation ratio vs prednisolone) [3]: largely comparable; induction of CD163 (in words) (CD163 [1]; human PBMC cultures): induced; suppression of the mRNA expression of TNF-α (in words) (TNF-α): suppression; induction of FKBP51 (in words) (FKBP51 [2]; human PBMC cultures, single substance): induced; suppression of the mRNA expression of IL-1β (in words) (IL-1β): suppression; Transrepression vs. Prednisolone IL-1β (IL-1β; 12 hours): 1.00; Transrepression vs. Prednisolone IL-1β (IL-1β; 24 hours): 1.00 |
| Cc1noc(=O)c2ccc(NC(=O)C(O)(CC(C)(C)c3cccc4c3OCO4)C(F)(F)F)cc12 (centres unmarked) [compound 1] |  |  |  |  |  |  |  |  |  |  |  |  |  |  |  |  |  |  | induced the expression of these genes permanently | induced the expression of these genes permanently | effectiveness, induction of the TAT activity, % of the maximum dexamethasone effect ([6]; rat hepatoma cells): 86±12.7%; EC50 ([6]; rat hepatoma cells): 5.7 ± 0.6 nM; expression of CD163 (CD163 [7]): clear induction; gene induction [8]: clearly induces; expression of glutamine synthetase (glutamine synthetase): clear induction; expression of GILZ (GILZ): clear induction; antagonistic effect in the MMTV promoter assay (in words) (MMTV promoter): antagonistic effect neither; EC50 (MMTV promoter; Homo sapiens, agonism, n=2, read-out: power, induction of the activity of the MMTV promoter): 10 ± 1.4 nM; effectiveness, induction of the MMTV promoter, % of the maximum dexamethasone effect (MMTV promoter; agonism, n=2): 73±2.8%; expression of FKBP51 (FKBP51 [9]): clear induction |
| Cc1noc(=O)c2ccc(NC(=O)C(O)(CC(C)(C)c3cc(F)ccc3C(F)(F)F)C(F)(F)F)cc12 (centres unmarked) [compound 2] |  |  |  |  |  |  |  |  |  |  |  |  |  |  |  |  |  |  | did not lead to the increase of the gene expression | did not lead to the increase of the gene expression | inhibition of the inflammatory cytokines (transrepression) (inflammatory cytokines): less pronounced; Emax ([6]; Rattus norvegicus, at a concentration of 1 μmol, read-out: antagonism of the dexamethasone-induced TAT activity, % of the maximum effect of RU 486): 35%; effectiveness, induction of the TAT activity, % of the maximum dexamethasone effect ([6]; rat hepatoma cells): 43.5±10.6%; EC50 ([6]; rat hepatoma cells): 67 ± 10 nM; behaviour in the TAT promoter (in words) ([6]; rat hepatoma cells): partial agonist; CD163 expression in all batches (CD163 [1]; human PBMC cultures, alone and with prednisolone): reduced; induction of CD163 on simultaneous administration with prednisolone, in comparison to prednisolone alone (CD163 [1]; [10]): clearly lower; induction of CD163 (in words) (CD163 [1]; human PBMC cultures): not; expression of CD163 (CD163 [7]): reduces the expression; gene induction [8]: lower gene induction or no gene induction; suppression of the mRNA expression of TNF-α (in words) (TNF-α): suppression; expression of glutamine synthetase (glutamine synthetase): reduces the expression; induction of FKBP51 on simultaneous administration with prednisolone, in comparison to prednisolone alone (FKBP51 [2]; [10]): clearly lower; expression of GILZ (GILZ): reduces the expression; antagonistic effect in the MMTV promoter assay (in words) (MMTV promoter): clear antagonist; IC50 (MMTV promoter; Homo sapiens, antagonism, n=3, read-out: power, antagonism of the MMTV promoter activity induced by dexamethasone): 85 ± 12 nM; effectiveness, antagonism of dexamethasone-induced MMTV promoter activity, % of the maximum effect of the GR antagonist RU 486 (MMTV promoter; antagonism, n=3): 119±3.6%; expression of FKBP51 (FKBP51 [9]): reduces the expression; suppression of the mRNA expression of IL-1β (in words) (IL-1β): suppression |
